Where two headings read alike, the source gives them in different places.
Target: T1, WT E. coli PNP (Escherichia coli, UniProt P0ABP8)
T1 construct: made in house
T1 sequence (P0ABP8 2-239 limits assumed): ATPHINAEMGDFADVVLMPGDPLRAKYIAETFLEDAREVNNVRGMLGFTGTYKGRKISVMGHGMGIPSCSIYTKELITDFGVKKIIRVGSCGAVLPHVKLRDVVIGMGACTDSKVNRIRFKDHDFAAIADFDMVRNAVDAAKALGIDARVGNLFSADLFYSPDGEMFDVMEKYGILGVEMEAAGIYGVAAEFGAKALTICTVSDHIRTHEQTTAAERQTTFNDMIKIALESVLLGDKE
Experiment: Thermophoretic (MST) titrations with phosphate
Conditions: two-binding-site model, 25 °C
Protocol: Measurements were performed with Monolith NT115 (NanoTemper). Enzyme was labelled with NT647 fluorescent dye (NanoTemper) according to the protocol provided by the manufacturer. Labelled proteins show fluorescence excitation and emission maxima of approximately 650 and 670 nm, respectively. The series of titrations were performed at a constant protein concentration. Both proteins (WT and mutant), and ligands were dissolved in 50 mM Tris/HCl pH 7.6 buffer, measurements were performed at 25 °C. […] In the pre-experiments, it was carefully checked for both proteins, WT and Y160W mutant whether any sign of aggregation or inactivation occurs, and if mutant behaviour is similar to that of the WT enzyme. […]
For experiments of the binary complex formation with phosphate, curves were measured at four different powers of the heating laser. Two to five titrations at each heating power were measured, and curves were averaged for a particular heating power. […] This is an area inaccessible in fluorescence titration due to the quenching of the protein fluorescence at such a high ionic strength of the solution. […]
Titration series were analysed globally, always starting from the simplest, one-binding-site model. […] For all tested models the Akaike information criterion[23] was also calculated. […]

## O=P(O)(O)O [Pi, Orthophosphate]
50 mM Tris/HCl pH 7.6, read-out: Kd1 ± SD
  Kd: 7 µM
50 mM Tris/HCl pH 7.6, read-out: Kd3 ± SD
  Kd: 1640 µM
